The results in this text go back to PubChem BioAssay AID1996.

A word on the kinetic solubility: it is the concentration staying in solution when a stock, usually in DMSO, is diluted into the medium.

In brackets after ≈: the same amount, converted by molar mass.

The conditions of the series: buffer; pH 7.4; 200.0 µM.
Turning to `CCOC(=O)c1cc(S(=O)(=O)NC2CCCCC2)cn1C`, the kinetic solubility was found to be 43.9 µg/mL (≈ 140 µM).

`O=C(NCc1ccccn1)C1CC(c2ccccc2Cl)=NO1` (stereo not drawn): the kinetic solubility was more than 47.4 µg/mL.

For the compound `Cc1cc(NC(=O)c2ccc(Cl)cc2Cl)n(CCC#N)n1`, the solubility (kinetic) was more than 48.5 µg/mL.

`CC(=O)c1c(C)[nH]c(=S)c(C#N)c1-c1ccc(F)cc1` came in with a kinetic solubility of more than 42.9 µg/mL.

As to `COC(=O)c1ccc(-c2ncc[nH]2)cc1`, the solubility (kinetic) is more than 30.3 µg/mL.

As to `O=[N+]([O-])c1ccc(N2CCNCC2)cc1N1CCCCC1`, the solubility (kinetic) was more than 43.6 µg/mL.

In turn, `CCNC(=S)NCCC1=c2ccccc2=N/C1=C\c1c(O)n(C)c(=O)n(C)c1=O` gave a solubility (kinetic) of 19.3 µg/mL (≈ 46.7 µM).

Turning to `Cc1ccc(C(=O)NC(C(=O)NC2CCCC2)c2ccccc2)cc1` (stereo not drawn), the solubility (kinetic) came out at 4.1 µg/mL (≈ 12.2 µM).

On to `Cc1cc(N2C(=O)c3ccccc3C2=O)n(C)n1`, for which the solubility (kinetic) was more than 36.2 µg/mL.

In turn, `CC1=C(C(=O)OC(C)C)C(c2ccc(O)cc2)NC(=O)N1` (stereo not drawn) yielded a kinetic solubility of more than 43.5 µg/mL.

The compound `Cc1ccc(NC2CC(C)NC(=S)N2)cc1` (stereo not drawn) returned a kinetic solubility of 33.1 µg/mL (≈ 141 µM).

In turn, `CC(=O)N(Cc1nc2sc(C)c(C)c2c(=O)[nH]1)C1CCCC1` displayed a solubility (kinetic) of 19.5 µg/mL (≈ 61 µM).

Consider `O=C(NCC(O)c1ccccc1)Nc1cccs1` (stereo not drawn), for which the kinetic solubility was more than 39.3 µg/mL.

The compound `COc1ccc(C(=O)CSc2[nH]c(=O)cc(C(F)(F)F)c2C#N)cc1` displayed a solubility (kinetic) of more than 55.2 µg/mL.

In turn, `Cc1ccc(S(=O)(=O)Nc2ccccc2CNC2CCCCC2)cc1` displayed a kinetic solubility of more than 53.8 µg/mL.

`C=CCN1CC[C@]23c4c5ccc(O)c4O[C@H]2C(=O)CC[C@@]3(O)[C@H]1C5.Cl` registered a solubility (kinetic) of more than 54.6 µg/mL.

`Cn1c(C2=C(O)CN(Cc3ccccc3)C2=N)[n+](C)c2ccccc21.[Cl-]`: the solubility (kinetic) was determined as 48.2 µg/mL.

For the compound `CCOc1ccc(C(=O)CCC(=O)Nc2ccccc2C)cc1`, the solubility (kinetic) was found to be 4.6 µg/mL (≈ 14.8 µM).

Compound `O=C(CN1C(=O)c2ccccc2C1=O)Nc1cccc(Cl)c1` had a solubility (kinetic) of 21.2 µg/mL (≈ 67.4 µM).

Regarding `CCCCOc1ccc(CN2CCSCC2)cc1`, the kinetic solubility turned out to be 14.1 µg/mL (≈ 53.1 µM).

In turn, `CCc1ccc2c(CN3CCN(S(=O)(=O)c4ccccc4F)CC3)cc(=O)oc2c1` had a solubility (kinetic) of 3.4 µg/mL (≈ 7.9 µM).

`CCCCn1c(N)c(N(C)C(=O)c2c(C)nn(-c3ccccc3)c2C)c(=O)[nH]c1=O` registered a solubility (kinetic) of more than 61.6 µg/mL.

`COc1ccc(CNCCc2ccc(Cl)cc2Cl)cc1`: the solubility (kinetic) stood at 2.1 µg/mL (≈ 6.77 µM).

With `CCOC(=O)/C(=C\c1ccc(OC)c(OC)c1)C(=O)c1cccnc1`, the solubility (kinetic) is more than 51.2 µg/mL.

As for `O=C(O)c1ccccc1-c1ccccc1C(=O)NCCc1ccccc1`, the solubility (kinetic) was 50.4 µg/mL (≈ 146 µM).

The compound `CSc1ccccc1C(=O)NCCOc1ccccc1C` came in with a solubility (kinetic) of more than 45.2 µg/mL.

The compound `Cc1nc2ccc(NC(=O)c3cc(Cl)ccn3)cc2s1` yielded a solubility (kinetic) of 4.9 µg/mL (≈ 16.1 µM).

For the compound `CCC(=O)NC1CCN(C(=S)NC)CC1`, the solubility (kinetic) is more than 34.4 µg/mL.

In turn, `CC1CCCN(C(=O)C2CCN(C(=O)Nc3ccccc3)CC2)C1` (stereo not drawn) yielded a kinetic solubility of more than 49.4 µg/mL.

In turn, `O=C(NCc1ccco1)c1cc(S(=O)(=O)NC2CC2)ccc1Br` yielded a kinetic solubility of more than 59.9 µg/mL.

The compound `O=C(O)CC1(CC(=O)NCc2ccc(F)cc2)CCCCC1` registered a kinetic solubility of more than 46.1 µg/mL.

The compound `Cn1c(=O)c2c(nc(SCCN3CCOCC3)n2C)n(C)c1=O` had a solubility (kinetic) of more than 50.9 µg/mL.

Compound `CCC(=O)c1ccc(OCC(=O)OCC(=O)Nc2ccc3c(c2)OCCO3)cc1` registered a solubility (kinetic) of 18.8 µg/mL (≈ 47.1 µM).

The compound `CC1CC(C)CN(C(=O)C(C)N(C)CC(=O)Nc2ccccc2Cl)C1` (stereo not drawn) had a solubility (kinetic) of more than 54.9 µg/mL.

As for `CC(=O)c1ccc(OCCOc2ccc(C#N)cc2)cc1`, the solubility (kinetic) came to 6.8 µg/mL (≈ 24.2 µM).

`COC(=O)c1cccc(N2CCCC2=O)c1`: the solubility (kinetic) is more than 32.9 µg/mL.

In turn, `CC(=O)NC(c1ccc2ccccc2c1)c1ccc2cccnc2c1O` (stereo not drawn) came in with a kinetic solubility of 1.2 µg/mL (≈ 3.5 µM).

Regarding `Cc1cc(NC(=O)COC(=O)c2ccccc2O)no1`, the kinetic solubility is 7.9 µg/mL (≈ 28.6 µM).

In turn, `O=c1nc(-c2ccccc2)c2cc(SC(F)F)ccc2[nH]1` showed a solubility (kinetic) of 1.4 µg/mL (≈ 4.6 µM).

As to `CN(Cc1c(F)cccc1Cl)C(=O)c1cnc2ccccc2n1`, the kinetic solubility was 38.3 µg/mL (≈ 116 µM).

`CC(OC(=O)c1ccccc1)C(=O)NCc1ccco1` (stereo not drawn) displayed a solubility (kinetic) of more than 41 µg/mL.

`O=C(O)CC1(CC(=O)Nc2ccc(C(F)(F)F)cc2)CCCC1` displayed a solubility (kinetic) of more than 49.4 µg/mL.

As for `ClCc1nc2ccccc2c2ccccc12`, the solubility (kinetic) was determined as 3.2 µg/mL (≈ 14.1 µM).

`CCc1nc2ccccc2c(C(=O)Nc2cccc(C)c2)c1C` displayed a solubility (kinetic) of 2.2 µg/mL (≈ 7.23 µM).

`Fc1ccc(NC(=S)Nc2nccs2)cc1`: the solubility (kinetic) amounted to 14.9 µg/mL (≈ 58.8 µM).

In turn, `O=C(CNC(=O)c1ccc(Cl)cc1)N/N=C/c1cccnc1` yielded a kinetic solubility of more than 47.5 µg/mL.

`NC(=O)c1ccc(CN2CCc3ccccc3C2)cc1` came in with a kinetic solubility of 34.5 µg/mL (≈ 130 µM).

The compound `CCc1noc(C)c1C(=O)OCC(=O)Nc1cccc(C)c1` gave a kinetic solubility of 20.4 µg/mL (≈ 67.5 µM).

As to `COC(=O)c1cc(Cl)c(NC(=O)Cc2ccccc2)cc1OC`, the solubility (kinetic) was 25.6 µg/mL (≈ 76.7 µM).

Turning to `CSCCOC(=O)C1=C(C)NC(=O)NC1c1ccc2c(c1)OCO2` (stereo not drawn), the kinetic solubility was more than 52.6 µg/mL.

In turn, `O=C(Nc1ccccc1[N+](=O)[O-])C1(c2ccccc2)CCOCC1` yielded a solubility (kinetic) of 42.3 µg/mL (≈ 130 µM).

Take `Cc1cc(C(=O)N(C)C2CCCCC2)no1`: the kinetic solubility was more than 33.3 µg/mL.

With `COc1cc(NC(=O)C(c2ccccc2)c2ccccc2)c(C(=O)O)cc1OC`, the solubility (kinetic) was more than 58.7 µg/mL.

In turn, `O=C(CCn1c(=S)oc2ccccc21)NCCC1=CCCCC1` came in with a kinetic solubility of 0.8 µg/mL (≈ 2.42 µM).

`Nc1ncc(-c2ccccc2)c(-c2ccc(OCc3ccccc3)cc2O)n1` yielded a solubility (kinetic) of 0.4 µg/mL (≈ 1.08 µM).

In turn, `CC1CCc2c(sc(NC(=O)c3cccs3)c2C(=O)O)C1` (stereo not drawn) registered a kinetic solubility of 47.4 µg/mL (≈ 147 µM).

`Cc1cc(C)c2c(n1)sc1c(=O)n(CC(=O)c3ccccc3)cnc12` yielded a kinetic solubility of less than 0.2 µg/mL.

`O=[N+]([O-])c1ccc2c(c1)/C(=N\O)c1ccccc1-2` displayed a kinetic solubility of 0.5 µg/mL (≈ 2.08 µM).

Regarding `CN1CCc2c(sc(NC(=O)Cc3ccc(F)cc3)c2C(N)=O)C1.Cl`, the solubility (kinetic) turned out to be 52.6 µg/mL.

`CCC1CN(C(=O)NCc2cccc(OC)c2)c2ccccc2O1` (stereo not drawn) registered a kinetic solubility of 43.3 µg/mL (≈ 133 µM).

The compound `COc1cc(SC)ccc1C(=O)NCCc1c[nH]c2ccccc12` showed a kinetic solubility of 6.1 µg/mL (≈ 17.9 µM).

In turn, `Cc1[nH]c2ccccc2c1C(=O)C(=O)NCCc1c[nH]c2ccccc12` had a kinetic solubility of 2.6 µg/mL (≈ 7.53 µM).

Compound `Cc1c(NC(=O)CSCc2ccccc2)cccc1C(=O)O` returned a kinetic solubility of more than 47.3 µg/mL.

The compound `O=C(OCC(=O)N1CCc2ccccc21)c1ccc(Br)o1` came in with a kinetic solubility of 3.7 µg/mL (≈ 10.6 µM).

Turning to `Cc1cccc(-n2cnc(C(=O)N3CCN(C)CC3)c2)n1`, the solubility (kinetic) is more than 42.8 µg/mL.

For `Cc1ncc([N+](=O)[O-])n1CCN1C(=O)c2ccccc2C1=O`, the solubility (kinetic) stood at 44.3 µg/mL (≈ 148 µM).

In the case of `CCC(C)NC(=O)c1ccc(CSCc2ccc(Cl)cc2)o1` (stereo not drawn), the solubility (kinetic) was found to be 22.6 µg/mL (≈ 66.9 µM).

Turning to `Cc1cc(C)c(C#N)c(SCC(=O)Nc2nonc2N)n1`, the kinetic solubility worked out at 15.3 µg/mL (≈ 50.3 µM).

Consider `Cc1ccccc1NC(=O)C(=O)NCCCN1CCOCC1`, for which the solubility (kinetic) was more than 45.8 µg/mL.

As to `COc1cc2c(cc1OC)C(c1cccc([N+](=O)[O-])c1)=NCC2`, the kinetic solubility was more than 46.8 µg/mL.

In the case of `O=C(CCS(=O)(=O)c1ccc(F)cc1)N1CCOCC1`, the kinetic solubility was more than 45.2 µg/mL.

On to `O=Cc1c(C(=O)O)n(Cc2ccccc2F)c2ccccc12`, for which the kinetic solubility was more than 44.6 µg/mL.

On to `CC(NC(=O)CSc1ncccn1)c1ccc2c(c1)OCO2` (stereo not drawn), for which the solubility (kinetic) was more than 47.6 µg/mL.
